Data as given in ChEMBL document CHEMBL4020776, “Stabilizing HDAC11 with SAHA to assay slow-binding benzamide inhibitors” (Bioorg Med Chem Lett, 2017).
pIC50: −log10 of the molar value.

Tests used:
[1] = target: T1, Histone deacetylase 11 (Homo sapiens) (UniProt Q96DB2); experiment: (§1) Inhibition of recombinant C-terminal His-tagged HDAC11 (unknown origin) expressed in baculovirus infected Sf9 cells at 2 uM using Ac-Arg-Gly-Lys(Ac)-AMC as substrate pretreated for 3 hrs followed by substrate addition after 30 mins by fluorometric method relative to control
T1 sequence (whole entry): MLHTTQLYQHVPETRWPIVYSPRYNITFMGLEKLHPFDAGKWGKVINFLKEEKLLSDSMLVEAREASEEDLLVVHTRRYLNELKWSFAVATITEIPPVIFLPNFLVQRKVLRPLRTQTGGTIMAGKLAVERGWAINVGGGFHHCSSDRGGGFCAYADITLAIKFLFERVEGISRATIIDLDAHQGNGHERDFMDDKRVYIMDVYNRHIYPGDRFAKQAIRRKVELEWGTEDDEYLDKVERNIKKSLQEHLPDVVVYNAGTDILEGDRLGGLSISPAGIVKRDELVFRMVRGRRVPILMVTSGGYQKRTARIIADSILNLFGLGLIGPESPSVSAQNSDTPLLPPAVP

[2] = target: T1, Histone deacetylase 11 (Homo sapiens); experiment: as §1, with “mins in presence of 0.2 uM SAHA” for “mins”
Histone deacetylase 11 [3] = target: T2, Histone deacetylase 11 (Homo sapiens, UniProt Q96DB2); experiment: Inhibition of recombinant C-terminal His-tagged HDAC11 (unknown origin) expressed in baculovirus infected Sf9 cells using Ac-Arg-Gly-Lys(Ac)-AMC as substrate pretreated for 3 hrs followed by substrate addition after 30 mins by fluorometric method
T2 sequence (Q96DB2 whole entry): T1 sequence (whole entry)

[4] = target: T1, Histone deacetylase 11 (Homo sapiens); experiment: Inhibition of recombinant C-terminal His-tagged HDAC11 (unknown origin) expressed in baculovirus infected Sf9 cells at 5 uM using Ac-Arg-Gly-Lys(Ac)-AMC as substrate pretreated followed by substrate addition after 30 mins by fluorometric method; details: TDE = time-dependent effect
Histone deacetylase 11 [5] = target: T2, Histone deacetylase 11; experiment: Inhibition of recombinant C-terminal His-tagged HDAC11 (unknown origin) expressed in baculovirus infected Sf9 cells using Ac-Arg-Gly-Lys(Ac)-AMC as substrate pretreated for 3 hrs followed by substrate addition after 30 mins in presence of 0.2 uM SAHA by fluorometric method

SMILES | inhibition [1] | inhibition [2] | pIC50 (Histone deacetylase 11 [3]) | inhibition [4] | pIC50 (Histone deacetylase 11 [5])
Nc1ccccc1NC(=O)/C=C/c1cn([C@H]2C[C@@H](CO)N(CCc3ccccc3)C2)nn1 | < 10% | 20% | – | – | –
Nc1ccccc1NC(=O)/C=C/c1cn([C@@H]2C[C@H](CO)N(CCCc3ccccc3)C2)nn1 | < 0% | 12% | – | – | –
Nc1ccccc1NC(=O)/C=C/c1cn([C@H]2C[C@@H](C(=O)O)N(Cc3ccccc3)C2)nn1 | < 0% | < 10% | – | – | –
Nc1ccccc1NC(=O)/C=C/c1cn([C@H]2C[C@H](C(=O)O)N(CCc3ccccc3)C2)nn1 | < 0% | < 10% | – | – | –
Nc1ccccc1NC(=O)/C=C/c1cn([C@@H]2C[C@H](C(=O)O)N(CCCc3ccccc3)C2)nn1 | < 10% | < 10% | – | – | –
Nc1ccccc1NC(=O)/C=C/c1cn([C@@H]2C[C@@H](CO)N(CCCc3ccccc3)C2)nn1 | < 10% | 13% | – | – | –
Nc1ccccc1NC(=O)/C=C/c1cn([C@H]2C[C@H](CO)N(CCCc3ccccc3)C2)nn1 | < 10% | 16% | – | – | –
Nc1ccccc1NC(=O)/C=C/c1cn([C@@H]2C[C@@H](CO)N(Cc3ccccc3)C2)nn1 | < 10% | 22% | – | – | –
Nc1ccccc1NC(=O)/C=C/c1cn([C@@H]2C[C@H](CO)N(Cc3ccccc3)C2)nn1 | < 10% | 14% | – | – | –
Nc1ccccc1NC(=O)/C=C/c1cn([C@@H]2C[C@@H](CO)N(CCc3ccccc3)C2)nn1 | – | < 10% | – | – | –
Nc1ccccc1NC(=O)/C=C/c1cn([C@@H]2C[C@H](C(=O)O)N(CCc3ccccc3)C2)nn1 | < 0% | < 10% | – | – | –
Nc1ccccc1NC(=O)/C=C/c1cn([C@@H]2C[C@@H](C(=O)O)N(CCCc3ccccc3)C2)nn1 | < 10% | < 10% | – | – | –
Nc1ccccc1NC(=O)/C=C/c1cn([C@H]2C[C@@H](CO)N(Cc3ccccc3)C2)nn1 | 31% | 36% | 5.67 | – | –
Nc1ccccc1NC(=O)/C=C/c1cn([C@H]2C[C@H](C(=O)O)N(CCCc3ccccc3)C2)nn1 | < 0% | < 10% | – | – | –
Nc1ccccc1NC(=O)/C=C/c1cn([C@@H]2C[C@H](CO)N(CCc3ccccc3)C2)nn1 | < 0% | < 10% | – | – | –
Nc1ccccc1NC(=O)/C=C/c1cn([C@H]2C[C@@H](C(=O)O)N(CCCc3ccccc3)C2)nn1 | < 0% | < 10% | – | – | –
Nc1ccccc1NC(=O)/C=C/c1cn([C@@H]2C[C@@H](C(=O)O)N(Cc3ccccc3)C2)nn1 | < 0% | < 10% | – | – | –
Nc1ccccc1NC(=O)/C=C/c1cn([C@H]2C[C@@H](C(=O)O)N(CCc3ccccc3)C2)nn1 | – | < 10% | – | – | –
Nc1ccccc1NC(=O)/C=C/c1cn([C@H]2C[C@H](C(=O)O)N(Cc3ccccc3)C2)nn1 | 12% | < 10% | – | – | –
Nc1ccccc1NC(=O)c1ccc(CNC(=O)OCc2cccnc2)cc1 [ENTINOSTAT] | 67% | 59% | 6.05 | Tde | 5.89
Nc1ccccc1NC(=O)/C=C/c1cn([C@H]2C[C@@H](CO)N(CCCc3ccccc3)C2)nn1 | < 0% | 19% | – | – | –
Nc1ccccc1NC(=O)/C=C/c1cn([C@H]2C[C@H](CO)N(Cc3ccccc3)C2)nn1 | < 0% | 14% | – | – | –
Nc1ccccc1NC(=O)/C=C/c1cn([C@H]2C[C@H](CO)N(CCc3ccccc3)C2)nn1 | < 10% | < 10% | – | – | –
Nc1ccccc1NC(=O)/C=C/c1cn([C@@H]2C[C@@H](C(=O)O)N(CCc3ccccc3)C2)nn1 | < 10% | < 10% | – | – | –
Nc1ccccc1NC(=O)/C=C/c1cn([C@@H]2C[C@H](C(=O)O)N(Cc3ccccc3)C2)nn1 | – | < 10% | – | – | –
